ChEMBL document CHEMBL5537171, “Design, Synthesis, and Biological Evaluation of Potent and Selective PROTAC Degraders of Oncogenic KRASG12D” (J Med Chem, 2024)
Activity calls are given as the source filed them. No cut-off for these calls is given here.

Columns and labels:
[1] = molecular target: von Hippel-Lindau disease tumor suppressor/GTPase KRas (Homo sapiens, UniProt P01116+P40337, G12D); experiment: PROTAC activity at VHL/KRAS G12D mutant in human ASPC1 cells assessed as induction of protein degradation incubated for 24 hrs by Western blot analysis; type: cell-based
[2] = system: von Hippel-Lindau disease tumor suppressor/GTPase KRas (Homo sapiens), P01116+P40337 [G12D]; experiment: PROTAC activity at VHL/KRAS G12D mutant in human ASPC1 cells assessed as induction of protein degradation incubated for 24 hrs by Western blot analysis relative to control; type: cell-based
[3] = Competitive binding affinity to His-tagged VHL/Elongin C/Elongin B/KRAS G12D mutant (unknown origin) by FP assay; design: species or system Homo sapiens
[4] = Cooperativity factor alpha, ratio of IC50 for His-tagged VHL/Elongin C/Elongin B (unknown origin) to IC50 for His-tagged VHL/Elongin C/Elongin B/KRAS (unknown origin)
[5] = Competitive binding affinity to His-tagged VHL/Elongin C/Elongin B (unknown origin) by FP assay; design: species or system Homo sapiens
HPAF-II = experiment: Antiproliferative activity against human HPAF-II cells harboring KRAS G12D mutant assessed as inhibition of cell viability incubated for 5 days by Cell Titer Glo assay; type: functional, cell-based; settings: 120 h
Panc 04.03 = experiment: Antiproliferative activity against human Panc 04.03 cells harboring KRAS G12D mutant assessed as inhibition of cell viability incubated for 5 days by Cell Titer Glo assay; type: functional, cell-based; settings: Panc 04.03, 120 h
ASPC1 [6] = experiment: Antiproliferative activity against human ASPC1 cells harboring KRAS G12D mutant assessed as inhibition of cell viability incubated for 5 days by Cell Titer Glo assay; type: functional, cell-based; settings: ASPC1, 120 h
SNU1 = experiment: Antiproliferative activity against human SNU1 cells harboring KRAS G12D mutant assessed as inhibition of cell viability incubated for 5 days by Cell Titer Glo assay; type: functional, cell-based; settings: SNU1, 120 h
AGS = experiment: Antiproliferative activity against human AGS cells harboring KRAS G12D mutant assessed as inhibition of cell viability incubated for 5 days by Cell Titer Glo assay; type: functional, cell-based; settings: 120 h
[7] = system: von Hippel-Lindau disease tumor suppressor/GTPase KRas (Homo sapiens), P01116+P40337 [G12D]; experiment: PROTAC activity at VHL/KRAS G12D mutant in human ASPC1 cells assessed as induction of protein degradation at 1 to 10 uM incubated for 7 hrs by Western blot analysis; type: cell-based; settings: dose 1-10 µM
NCI-H358 = experiment: Antiproliferative activity against human NCI-H358 cells harboring KRAS G12C mutant assessed as inhibition of cell viability incubated for 5 days by Cell Titer Glo assay; type: functional, cell-based; settings: NCI-H358, 120 h
NCI-H1975 = experiment: Antiproliferative activity against human NCI-H1975 cells harboring wild-type KRAS assessed as inhibition of cell viability incubated for 5 days by Cell Titer Glo assay; type: functional, cell-based; settings: NCI-H1975, 120 h
Homo sapiens = species: Homo sapiens; experiment: Binding affinity to His-tagged VHL/Elongin C/Elongin B/GST-tagged KRAS G12D mutant (unknown origin) incubated for 1 hr by HTRF assay
[8] = Drug uptake in human ASPC1 cells at 10 uM incubated for 1 hr by MS analysis; type: ADME, cell-based; settings: aspc1, 1 h
GTPase KRas = GTPase KRas (Homo sapiens, UniProt P01116, G12D); experiment: Inhibition of KRAS G12D mutant (unknown origin) preincubated for 15 mins followed by SOS1/EDA-GTP-DY-647P1 addition measured after 30 mins by HTRF assay
ASPC1 [9] = experiment: Antiproliferative activity against human ASPC1 cells assessed as inhibition of cell viability incubated for 120 hrs of continuous treatment by Cell Titer Glo assay; type: functional, cell-based; settings: ASPC1, 120 h
[10] = system: von Hippel-Lindau disease tumor suppressor/GTPase KRas (Homo sapiens), P01116+P40337 [G12D]; experiment: PROTAC activity at VHL/KRAS G12D mutant in human ASPC1 cells assessed as decrease in pERK level at 1 uM incubated for 6 hrs followed by compound washout measured for <4 hrs by Western blot analysis; type: cell-based
[11] = Selectivity index, ratio of IC50 for human ASPC1 cells assessed as inhibition of cell viability incubated for 6 hrs followed by compound washout measured after 114 hrs by Cell Titer Glo assay to IC50 for human ASPC1 cells assessed as inhibition of cell viability incubated for 120 hrs of continuous treatment by Cell Titer Glo assay; type: functional
ASPC1 [12] = experiment: Antiproliferative activity against human ASPC1 cells assessed as inhibition of cell viability incubated for 6 hrs followed by compound washout measured after 114 hrs by Cell Titer Glo assay; type: functional, cell-based

Sequence of von Hippel-Lindau disease tumor suppressor/GTPase KRas (Homo sapiens), P01116+P40337 [G12D] (P01116 whole entry G12D): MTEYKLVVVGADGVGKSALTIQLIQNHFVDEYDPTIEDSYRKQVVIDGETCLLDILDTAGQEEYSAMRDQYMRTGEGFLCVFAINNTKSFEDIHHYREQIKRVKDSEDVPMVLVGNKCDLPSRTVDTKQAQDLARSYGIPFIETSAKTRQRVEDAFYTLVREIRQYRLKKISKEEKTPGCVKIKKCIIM
Sequence of von Hippel-Lindau disease tumor suppressor/GTPase KRas (Homo sapiens), P01116+P40337 [G12D] (P40337 whole entry partner): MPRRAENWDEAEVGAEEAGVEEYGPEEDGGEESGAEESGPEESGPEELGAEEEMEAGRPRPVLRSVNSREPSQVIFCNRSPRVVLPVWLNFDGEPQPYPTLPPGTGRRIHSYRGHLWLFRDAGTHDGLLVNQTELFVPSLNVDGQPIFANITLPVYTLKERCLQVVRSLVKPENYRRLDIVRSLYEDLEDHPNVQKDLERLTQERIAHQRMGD
Sequence of von Hippel-Lindau disease tumor suppressor/GTPase KRas (P01116 whole entry G12D, stated change not applied): as the sequence (P01116 whole entry G12D) above
Sequence of von Hippel-Lindau disease tumor suppressor/GTPase KRas (P40337 whole entry, stated change not applied): as the sequence (P40337 whole entry partner) above
Sequence of GTPase KRas (P01116 whole entry G12D): as the sequence (P01116 whole entry G12D) above

C#Cc1c(F)ccc2cc(O)cc(-c3ncc4c(N5C[C@H]6CC[C@@H](C5)N6)nc(OC[C@@H]5CCCN5CCCCOCC(=O)N[C@H](C(=O)N5C[C@H](O)C[C@H]5C(=O)N[C@@H](C)c5ccc(-c6scnc6C)cc5)C(C)(C)C)nc4c3F)c12
DC50 ([1]; read-out: DC50): 116 nM
Emax [2]: 99.5%

CC(=O)N[C@H](C(=O)N1C[C@H](O)C[C@H]1C(=O)N[C@@H](C)c1ccc(-c2scnc2C)cc1)C(C)(C)C
IC50 [3]: 380 nM
Ratio IC50 [4]: 0.9
IC50 [5]: 343 nM

CCc1c(F)ccc2cc(O)cc(-c3ncc4c(N5C[C@H]6CC[C@@H](C5)N6)nc(OC[C@@H]5CCCN5CCCCOCC(=O)N[C@H](C(=O)N5C[C@@H](O)C[C@H]5C(=O)N[C@@H](C)c5ccc(-c6scnc6C)cc5)C(C)(C)C)nc4c3F)c12
IC50 (HPAF-II): > 4000 nM
IC50 (Panc 04.03): 3360 nM
IC50 (ASPC1 [6]): > 2000 nM
IC50 (SNU1): 927 nM
IC50 (AGS): 955 nM
Activity [7]: inactive
IC50 (NCI-H358): > 10000 nM
IC50 (NCI-H1975): > 10000 nM
Activity (Homo sapiens): inactive

CCc1cccc2cc(O)cc(-c3ncc4c(N5C[C@H]6CC[C@@H](C5)N6)nc(OC[C@@H]5CCCN5CCCCOCC(=O)N[C@H](C(=O)N5C[C@H](O)C[C@H]5C(=O)N[C@@H](C)c5ccc(-c6scnc6C)cc5)C(C)(C)C)nc4c3F)c12
IC50 [3]: 18.9 nM
DC50 ([1]; read-out: DC50): 164 nM
Drug uptake [8]: Active
Emax [2]: 99.4%
Ratio IC50 [4]: 21.5
IC50 [5]: 407 nM

CCc1cccc2cc(O)cc(-c3ncc4c(N5C[C@H]6CC[C@@H](C5)N6)nc(OC[C@@H]5CCCN5C5CC6(CCN(CC(=O)N[C@H](C(=O)N7C[C@H](O)C[C@H]7C(=O)N[C@@H](C)c7ccc(-c8scnc8C)cc7)C(C)(C)C)CC6)C5)nc4c3F)c12
DC50 ([1]; read-out: DC50): 134 nM
Emax [2]: 85.1%

CCc1cccc2cc(O)cc(-c3ncc4c(N5C[C@H]6CC[C@@H](C5)N6)nc(OC[C@@H]5CCCN5C[C@H]5CC[C@H](C(=O)N[C@H](C(=O)N6C[C@H](O)C[C@H]6C(=O)N[C@@H](C)c6ccc(-c7scnc7C)cc6)C(C)(C)C)CC5)nc4c3F)c12
DC50 [1]: Not Active
Emax [2]: inactive

CCc1cccc2cc(O)cc(-c3ncc4c(N5C[C@H]6CC[C@@H](C5)N6)nc(OC[C@@H]5CCCN5C)nc4c3F)c12
IC50 (GTPase KRas): 5.8 nM

CCc1cccc2cc(O)cc(-c3ncc4c(N5C[C@H]6CC[C@@H](C5)N6)nc(OC[C@@H]5CCCN5CCCCCCCC(=O)N[C@H](C(=O)N5C[C@H](O)C[C@H]5C(=O)N[C@@H](C)c5ccc(-c6scnc6C)cc5)C(C)(C)C)nc4c3F)c12
DC50 ([1]; read-out: DC50): 2260 nM
Emax [2]: 82.4%

CCc1cccc2cc(O)cc(-c3ncc4c(N5C[C@H]6CC[C@@H](C5)N6)nc(OC[C@@H]5CCCN5CCCCCCC(=O)N[C@H](C(=O)N5C[C@H](O)C[C@H]5C(=O)N[C@@H](C)c5ccc(-c6scnc6C)cc5)C(C)(C)C)nc4c3F)c12
DC50 ([1]; read-out: DC50): 572 nM
Emax [2]: 98.9%

CCc1cccc2cc(O)cc(-c3ncc4c(N5C[C@H]6CC[C@@H](C5)N6)nc(OC[C@@H]5CCCN5CCOCCC(=O)N[C@H](C(=O)N5C[C@H](O)C[C@H]5C(=O)N[C@@H](C)c5ccc(-c6scnc6C)cc5)C(C)(C)C)nc4c3F)c12
DC50 ([1]; read-out: DC50): 1820 nM
Emax [2]: 89.5%

CCc1cccc2cc(O)cc(-c3ncc4c(N5C[C@H]6CC[C@@H](C5)N6)nc(OC[C@@H]5CCCN5C5CCC6(CC5)CCN(CC(=O)N[C@H](C(=O)N5C[C@H](O)C[C@H]5C(=O)N[C@@H](C)c5ccc(-c7scnc7C)cc5)C(C)(C)C)CC6)nc4c3F)c12
Emax [2]: 53.9%

CCc1cccc2cc(O)cc(-c3ncc4c(N5C[C@H]6CC[C@@H](C5)N6)nc(OC[C@@H]5CCCN5CC5CCN(CCC(=O)N[C@H](C(=O)N6C[C@H](O)C[C@H]6C(=O)N[C@@H](C)c6ccc(-c7scnc7C)cc6)C(C)(C)C)CC5)nc4c3F)c12
IC50 [3]: 80.4 nM
Emax [2]: 29.8%
Ratio IC50 [4]: 26.9
IC50 [5]: 2160 nM

CCc1cccc2cc(O)cc(-c3ncc4c(N5C[C@H]6CC[C@@H](C5)N6)nc(OC[C@@H]5CCCN5CCCCC(=O)N[C@H](C(=O)N5C[C@H](O)C[C@H]5C(=O)N[C@@H](C)c5ccc(-c6scnc6C)cc5)C(C)(C)C)nc4c3F)c12
DC50 ([1]; read-out: DC50): 1010 nM
Emax [2]: 96.7%

CCc1cccc2cc(O)cc(-c3ncc4c(N5C[C@H]6CC[C@@H](C5)N6)nc(OC[C@@H]5CCCN5CCC(=O)NCCC(=O)N[C@H](C(=O)N5C[C@H](O)C[C@H]5C(=O)N[C@@H](C)c5ccc(-c6scnc6C)cc5)C(C)(C)C)nc4c3F)c12
IC50 [3]: 29.8 nM
DC50 ([1]; read-out: DC50): 3810 nM
Drug uptake [8]: Active
Emax [2]: 83.6%
Ratio IC50 [4]: 76.2
IC50 [5]: 2270 nM

CCc1cccc2cc(O)cc(-c3ncc4c(N5C[C@H]6CC[C@@H](C5)N6)nc(OC[C@@H]5CCCN5CCCCOCCC(=O)N[C@H](C(=O)N5C[C@H](O)C[C@H]5C(=O)N[C@@H](C)c5ccc(-c6scnc6C)cc5)C(C)(C)C)nc4c3F)c12
DC50 ([1]; read-out: DC50): 1310 nM
Emax [2]: 90.2%

CCc1cccc2cc(O)cc(-c3ncc4c(N5C[C@H]6CC[C@@H](C5)N6)nc(OC[C@@H]5CCCN5CCCCCCCCC(=O)N[C@H](C(=O)N5C[C@H](O)C[C@H]5C(=O)N[C@@H](C)c5ccc(-c6scnc6C)cc5)C(C)(C)C)nc4c3F)c12
DC50 ([1]; read-out: DC50): 165 nM
Emax [2]: 89.3%

CCc1cccc2cc(O)cc(-c3ncc4c(N5C[C@H]6CC[C@@H](C5)N6)nc(OC[C@@H]5CCCN5CCCOCCC(=O)N[C@H](C(=O)N5C[C@H](O)C[C@H]5C(=O)N[C@@H](C)c5ccc(-c6scnc6C)cc5)C(C)(C)C)nc4c3F)c12
IC50 [3]: 25.4 nM
DC50 ([1]; read-out: DC50): 132 nM
Emax [2]: 98.1%
Ratio IC50 [4]: 35.7
IC50 [5]: 908 nM

CCc1cccc2cc(O)cc(-c3ncc4c(N5C[C@H]6CC[C@@H](C5)N6)nc(OC[C@@H]5CCCN5CCCCCC(=O)N[C@H](C(=O)N5C[C@H](O)C[C@H]5C(=O)N[C@@H](C)c5ccc(-c6scnc6C)cc5)C(C)(C)C)nc4c3F)c12
DC50 ([1]; read-out: DC50): 1200 nM
Emax [2]: 89.7%

CCc1c(F)ccc2cc(O)cc(-c3ncc4c(N5C[C@H]6CC[C@@H](C5)N6)nc(OC[C@@H]5C[C@@H](F)CN5CCCCOCC(=O)N[C@H](C(=O)N5C[C@H](O)C[C@H]5C(=O)N[C@@H](C)c5ccc(-c6scnc6C)cc5)C(C)(C)C)nc4c3F)c12
DC50 ([1]; read-out: DC50): 87.2 nM
Emax [2]: 96.2%

CCc1c(F)ccc2cc(O)cc(-c3ncc4c(N5C[C@H]6CC[C@@H](C5)N6)nc(OC[C@@H]5CCCN5C)nc4c3F)c12
IC50 (ASPC1 [9]): 139 nM
Activity [10]: Active
IC50 (HPAF-II): 165 nM
IC50 (Panc 04.03): 112 nM
IC50 (ASPC1 [6]): 154 nM
IC50 (SNU1): 29.8 nM
IC50 (AGS): 20.1 nM
Ratio IC50 [11]: 21.14
IC50 (ASPC1 [12]): 2940 nM
IC50 (NCI-H358): > 10000 nM
IC50 (NCI-H1975): > 10000 nM
